We go through 25 compounds from ChEMBL document CHEMBL3120088, “Discovery of selective small molecule type III phosphatidylinositol 4-kinase alpha (PI4KIIIα) inhibitors as anti hepatitis C (HCV) agents” (J Med Chem, 2014).

The pIC50 is the negative decadic logarithm of the IC50, by convention in mol/L. A lower pIC50 goes with a large IC50. A word on the IC50: it is the concentration that gives 50% inhibition. A lower IC50 goes with greater potency in that assay.

The nature of assay [1]: Inhibition of PI3Kdelta (1 to 1044)/6xHis-tagged p85 (1 to 724) (unknown origin) using diC8-PIP2 as substrate preincubated for 30 mins followed by substrate addition measured after 45 to 60 mins. On the set-up: species or system Homo sapiens.
For assay [2], the system named is Hepatitis C virus. The experiment in a line: Antiviral activity against Hepatitis C virus genotype 1b expressed in ET cells after 48 hrs by luciferase reporter gene assay. The format is functional, organism-based, Hepacivirus hominis. To be noted: for IC50: Hepatitis C virus, genotype 1b, ET, 48 h. For orientation: In a reporter assay the amount or activity of a reporter protein is the signal.

The nature of assay [3]: Inhibition of PI3Kbeta (1 to 1070)/6xHis-tagged p85 (1 to 724) (unknown origin) using diC8-PIP2 as substrate preincubated for 30 mins followed by substrate addition measured after 45 to 60 mins. Also noted: species or system Homo sapiens.
The nature of assay [4]: Inhibition of PI3Kalpha (1 to 1068)/6xHis-tagged p85 (1 to 724) (unknown origin) using diC8-PIP2 as substrate preincubated for 30 mins followed by substrate addition measured after 45 to 60 mins. On the set-up: species or system Homo sapiens.
Assay [5] can be described thus: Inhibition of 6xHis-tagged PI4K-beta (13 to 828) 316 to 330 deletion mutant (unknown origin) using D-myo-phosphatidylinositol as substrate preincubated for 30 mins followed by substrate addition measured after 180 mins by luminescence assay. On the set-up: species or system Homo sapiens.
In assay [6] the target is Phosphatidylinositol 4-kinase alpha (Homo sapiens, UniProt P42356). Briefly: Inhibition of GST-tagged PI4K-alpha (1 to 2044) (unknown origin) using D-myo-phosphatidylinositol as substrate preincubated for 30 mins followed by substrate addition measured after 180 mins by luminescence assay.
Chain of Phosphatidylinositol 4-kinase alpha (P42356 whole entry, canonical isoform): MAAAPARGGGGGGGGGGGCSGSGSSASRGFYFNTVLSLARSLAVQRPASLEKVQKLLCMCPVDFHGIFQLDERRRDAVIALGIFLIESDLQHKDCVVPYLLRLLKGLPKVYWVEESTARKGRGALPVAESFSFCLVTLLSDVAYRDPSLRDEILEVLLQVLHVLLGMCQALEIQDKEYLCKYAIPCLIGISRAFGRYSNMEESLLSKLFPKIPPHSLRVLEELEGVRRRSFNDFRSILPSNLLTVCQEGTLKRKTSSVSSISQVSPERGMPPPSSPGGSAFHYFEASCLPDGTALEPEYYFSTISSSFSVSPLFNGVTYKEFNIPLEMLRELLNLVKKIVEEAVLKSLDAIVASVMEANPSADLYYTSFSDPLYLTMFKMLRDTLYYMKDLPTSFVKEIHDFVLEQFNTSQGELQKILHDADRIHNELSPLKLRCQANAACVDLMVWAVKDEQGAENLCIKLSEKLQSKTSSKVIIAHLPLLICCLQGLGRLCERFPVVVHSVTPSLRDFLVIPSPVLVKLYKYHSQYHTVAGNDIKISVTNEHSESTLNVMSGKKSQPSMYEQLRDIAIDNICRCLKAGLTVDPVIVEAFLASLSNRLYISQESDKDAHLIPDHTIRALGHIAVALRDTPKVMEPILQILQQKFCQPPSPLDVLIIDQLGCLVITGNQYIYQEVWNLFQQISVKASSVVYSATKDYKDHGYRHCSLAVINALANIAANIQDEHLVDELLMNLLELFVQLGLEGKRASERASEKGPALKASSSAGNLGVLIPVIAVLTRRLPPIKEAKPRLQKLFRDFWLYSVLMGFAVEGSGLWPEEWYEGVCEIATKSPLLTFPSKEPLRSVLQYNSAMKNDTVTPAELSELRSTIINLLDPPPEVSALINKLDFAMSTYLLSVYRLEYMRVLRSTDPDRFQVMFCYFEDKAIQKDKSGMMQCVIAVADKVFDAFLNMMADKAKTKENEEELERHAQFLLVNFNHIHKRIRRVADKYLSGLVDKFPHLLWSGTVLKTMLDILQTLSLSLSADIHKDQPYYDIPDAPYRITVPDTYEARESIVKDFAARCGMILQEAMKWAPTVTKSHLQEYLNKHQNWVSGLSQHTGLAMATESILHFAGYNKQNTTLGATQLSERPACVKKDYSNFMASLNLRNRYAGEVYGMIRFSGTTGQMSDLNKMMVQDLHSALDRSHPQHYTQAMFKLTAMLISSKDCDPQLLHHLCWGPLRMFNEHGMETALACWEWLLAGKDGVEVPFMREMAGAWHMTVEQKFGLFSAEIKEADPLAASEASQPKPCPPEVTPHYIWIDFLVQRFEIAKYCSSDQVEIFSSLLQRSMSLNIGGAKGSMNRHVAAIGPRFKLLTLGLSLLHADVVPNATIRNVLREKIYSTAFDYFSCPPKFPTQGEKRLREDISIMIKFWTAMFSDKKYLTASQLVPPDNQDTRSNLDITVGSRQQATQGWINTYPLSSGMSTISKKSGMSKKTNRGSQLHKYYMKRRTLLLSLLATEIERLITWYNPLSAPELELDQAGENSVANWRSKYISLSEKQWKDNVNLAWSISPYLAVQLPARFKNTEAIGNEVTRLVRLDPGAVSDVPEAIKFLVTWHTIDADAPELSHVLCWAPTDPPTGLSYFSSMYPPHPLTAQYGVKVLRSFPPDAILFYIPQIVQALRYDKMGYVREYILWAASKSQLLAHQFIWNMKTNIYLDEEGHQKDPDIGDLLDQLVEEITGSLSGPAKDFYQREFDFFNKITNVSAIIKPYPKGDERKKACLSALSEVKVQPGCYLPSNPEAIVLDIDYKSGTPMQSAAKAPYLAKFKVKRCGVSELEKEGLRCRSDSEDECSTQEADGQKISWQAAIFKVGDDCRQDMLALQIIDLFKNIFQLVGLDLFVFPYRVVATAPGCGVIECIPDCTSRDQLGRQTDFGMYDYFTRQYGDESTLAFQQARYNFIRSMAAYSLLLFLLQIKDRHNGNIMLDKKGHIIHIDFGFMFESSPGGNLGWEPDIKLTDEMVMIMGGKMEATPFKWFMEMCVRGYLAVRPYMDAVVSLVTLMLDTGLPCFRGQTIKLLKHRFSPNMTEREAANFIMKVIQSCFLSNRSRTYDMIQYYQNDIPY
Assay [7] has as its target Phosphatidylinositol 4,5-bisphosphate 3-kinase catalytic subunit gamma isoform (Homo sapiens, UniProt P48736).
Description: Inhibition of PI3Kgamma (2 to 1102) (unknown origin) using diC8-PIP2 as substrate preincubated for 30 mins followed by substrate addition measured after 45 to 60 mins
For assay [8], the system named is Hepatitis C virus. Briefly: Antiviral activity against Hepatitis C virus genotype 1a expressed in ET cells after 48 hrs by luciferase reporter gene assay. To be noted: et. The format is functional, organism-based, Hepacivirus hominis, subtype 1a.

Chain of Phosphatidylinositol 4,5-bisphosphate 3-kinase catalytic subunit gamma isoform (P48736 whole entry, canonical isoform): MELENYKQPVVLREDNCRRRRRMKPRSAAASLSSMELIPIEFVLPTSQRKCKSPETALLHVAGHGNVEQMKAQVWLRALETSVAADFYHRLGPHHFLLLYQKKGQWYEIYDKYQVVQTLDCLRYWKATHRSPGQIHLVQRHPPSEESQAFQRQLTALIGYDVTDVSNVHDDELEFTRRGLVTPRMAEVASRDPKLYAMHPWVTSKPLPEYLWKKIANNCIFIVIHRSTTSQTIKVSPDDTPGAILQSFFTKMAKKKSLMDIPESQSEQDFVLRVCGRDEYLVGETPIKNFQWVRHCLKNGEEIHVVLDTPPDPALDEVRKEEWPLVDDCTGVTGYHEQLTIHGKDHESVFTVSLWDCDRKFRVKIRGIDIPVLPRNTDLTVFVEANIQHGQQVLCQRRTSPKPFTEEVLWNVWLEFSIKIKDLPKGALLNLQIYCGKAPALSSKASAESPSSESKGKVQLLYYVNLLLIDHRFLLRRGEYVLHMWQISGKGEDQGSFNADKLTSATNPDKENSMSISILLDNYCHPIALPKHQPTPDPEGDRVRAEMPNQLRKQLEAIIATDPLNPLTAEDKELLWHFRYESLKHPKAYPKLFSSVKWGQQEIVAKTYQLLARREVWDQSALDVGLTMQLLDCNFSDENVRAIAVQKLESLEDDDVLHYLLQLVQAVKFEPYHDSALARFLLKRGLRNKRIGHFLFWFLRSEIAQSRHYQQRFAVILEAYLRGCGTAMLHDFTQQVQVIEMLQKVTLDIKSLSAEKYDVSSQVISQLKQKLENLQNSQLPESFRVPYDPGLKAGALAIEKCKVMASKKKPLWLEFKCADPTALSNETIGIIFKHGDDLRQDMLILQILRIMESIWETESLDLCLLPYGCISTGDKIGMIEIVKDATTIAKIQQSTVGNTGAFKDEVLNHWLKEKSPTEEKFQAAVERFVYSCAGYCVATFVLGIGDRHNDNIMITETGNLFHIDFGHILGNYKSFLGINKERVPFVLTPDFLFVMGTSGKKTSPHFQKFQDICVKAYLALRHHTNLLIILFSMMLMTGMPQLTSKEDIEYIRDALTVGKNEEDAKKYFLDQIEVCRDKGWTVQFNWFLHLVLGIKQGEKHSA

For `COc1ncc(-c2ccc3nc(N)n(-c4ccccc4)c(=O)c3c2)cc1NS(=O)(=O)c1ccc(C)cc1`, the pIC50 was 8 in assay [1], 5.6 in assay [3], 7.3 in assay [4] and 6.2 in assay [5]. Moreover, the values for the IC50 in assay [2] and in assay [6] were 3.16 nM and 15.8 nM, respectively.

On to `COc1ncc(-c2ccc3nc(N)n(-c4ccccc4)c(=O)c3c2)cc1NS(=O)(=O)c1ccccc1C`, for which the results for the IC50 in assay [7], in assay [2] and in assay [6] were 39.8 nM, 0.398 nM and 1 nM, respectively. Besides, the pIC50 turned out to be 7.6 in assay [1], 6.4 in assay [3], 7.2 in assay [4] and 6.8 in assay [5].

Regarding `COc1ccc(-c2ccc3nc(N)n(-c4ccccc4)c(=O)c3c2)cc1NS(=O)(=O)c1ccc(F)cc1F`, the IC50 in assay [7] was 316 nM; in assay [2] it was 31.6 nM; in assay [6], 316 nM. Further, the pIC50 in assay [1] came to 5.4; in assay [3] it was 4; in assay [4] it was 5.8; in assay [5], 6.8.

As for `Nc1ncc(-c2ccc3nc(N)n(-c4ccccc4)c(=O)c3c2)cc1NS(=O)(=O)c1ccc(F)cc1F`, the pIC50 was 6.4 in assay [1], 5.3 in assay [3], 6.7 in assay [4] and 7.5 in assay [5]. Besides, the results for the IC50 in assay [2] and in assay [6] were 15.8 nM and 0.794 nM, respectively.

For the compound `COc1ncc(-c2ccc3nc(N)n(-c4ccccc4C(C)C)c(=O)c3c2)cc1S(=O)(=O)Nc1ccc(F)cc1F`, the 50% inhibitory concentration (IC50) in assay [7] is 1000 nM; in assay [2] it was 6.31 nM; in assay [6] it was 31.6 nM. The pIC50 in assay [1] came to 5.6; in assay [3] it was 4.8; in assay [4], 5.8; in assay [5] it was 6.

On to `COc1ncc(-c2ccc3nc(N)c(-c4ccccc4)cc3c2)cc1NS(=O)(=O)c1ccc(F)cc1F`, for which the IC50 in assay [7] is 63.1 nM; in assay [2], 10 nM; in assay [6], 100 nM. For the same compound, the negative-log IC50 (pIC50) is listed as 6.9 in assay [1], 5.9 in assay [3], 6.5 in assay [4] and 5.8 in assay [5].

Regarding `COc1ncc(-c2ccc3nc(N)n(-c4ccccc4)c(=O)c3c2)cc1NS(=O)(=O)c1cccnc1`, the figures for the IC50 in assay [7], in assay [2] and in assay [6] were 6.31 nM, 1 nM and 0.316 nM, respectively. The pIC50 worked out at 8.5 in assay [1], 7 in assay [3], 8.4 in assay [4] and 7.4 in assay [5].

For the compound `COc1ncc(-c2ccc3nc(N)n(-c4ccccc4)c(=O)c3c2)cc1S(=O)(=O)Nc1ccc(F)cc1F`, the results for the IC50 in assay [7], in assay [2] and in assay [6] were 1260 nM, 5.01 nM and 6.31 nM, respectively. For the same compound, the pIC50 in assay [1] amounted to 6.3; in assay [3], 4.9; in assay [4] it was 6; in assay [5] it was 5.5.

`COc1ncc(-c2cc3cc(-c4ccccc4)c(N)nc3cn2)cc1NS(=O)(=O)c1ccc(F)cc1F`: the 50% inhibitory concentration (IC50) was 1260 nM in assay [7], 158 nM in assay [2] and 200 nM in assay [6]. The pIC50 in assay [1] is 6.2; in assay [3] it was 5.8; in assay [4], 5.7; in assay [5], 5.

`COc1ncc(-c2ccc3nc(N)n(-c4ccc(C(F)(F)F)cc4)c(=O)c3c2)cc1S(=O)(=O)Nc1ccc(F)cc1F`: the figures for the concentration for half-maximal inhibition (IC50) in assay [7], in assay [2] and in assay [6] were 398 nM, 10 nM and 50.1 nM, respectively. In addition, the pIC50 in assay [1] is 6.4; in assay [3] it was 4.6; in assay [4] it was 6.1; in assay [5], 5.

As to `COc1ncc(-c2ccc3nc(N)c(-c4ccccc4)nc3c2)cc1NS(=O)(=O)c1ccc(F)cc1F`, the IC50 was 7.94 nM in assay [7], 15.8 nM in assay [2] and 5.01 nM in assay [6]. For the same compound, the pIC50 is 7.8 in assay [1], 6.7 in assay [3], 7.1 in assay [4] and 6.9 in assay [5].

Regarding `COc1ncc(-c2ccc3nc(N)n(-c4ccccc4)c(=O)c3c2)cc1NS(=O)(=O)c1ccc(C#N)cc1`, the half-maximal inhibitory concentration (IC50) is 50.1 nM in assay [7], 0.631 nM in assay [2] and 1 nM in assay [6]. Besides, the pIC50 amounted to 7.6 in assay [1], 6.3 in assay [3], 6.6 in assay [4] and 7.5 in assay [5].

Regarding `COc1ncc(-c2ccc3nc(N)n(-c4ccccc4)c(=O)c3c2)cc1NS(=O)(=O)c1cccc(C)c1`, the IC50 in assay [7] is 50.1 nM; in assay [2], 1.26 nM; in assay [6], 3.98 nM. Moreover, the pIC50 is recorded as 7.3 in assay [1], 6.3 in assay [3], 7.1 in assay [4] and 6.4 in assay [5].

Consider `COc1ncc(-c2ccc3nc(N)n(-c4ccccc4C)c(=O)c3c2)cc1S(=O)(=O)Nc1ccc(F)cc1F`, for which the IC50 was 316 nM in assay [7], 2.51 nM in assay [2] and 10 nM in assay [6]. Also, the pIC50 in assay [1] worked out at 6.7; in assay [3], 5.7; in assay [4] it was 6.5; in assay [5], 6.1.

Regarding `COc1ncc(-c2ccc3nc(N)c(-c4ccccc4)cc3n2)cc1NS(=O)(=O)c1ccc(F)cc1F`, the IC50 in assay [7] is 25100 nM; in assay [2] it was more than 5010 nM; in assay [6] it was 7940 nM. The pIC50 in assay [1] worked out at 4.9; in assay [3] it was 4.2; in assay [4], 4.2; in assay [5], 5.

Turning to `COc1ncc(-c2ccc3nc(N)n(-c4ccccc4)c(=O)c3c2)cc1N(C)S(=O)(=O)c1ccc(F)cc1F`, the IC50 in assay [7] was 3980 nM; in assay [2], more than 2000 nM; in assay [6] it was 3980 nM. The pIC50 worked out at 4.8 in assay [1], 4.5 in assay [3], 5.5 in assay [4] and 5 in assay [5].

`COc1ncc(-c2ccc3ncnc(N4CCOCC4)c3c2)cc1NS(=O)(=O)c1ccc(F)cc1F`: the results for the IC50 in assay [7] and in assay [6] were 2.51 nM and 1.58 nM, respectively. The pIC50 in assay [1] stood at 8.9; in assay [3], 8.7; in assay [4] it was 8.9; in assay [5], 7.7.

Consider `COc1ncc(-c2ccc3nc(N)n(-c4ccccc4)c(=O)c3c2)cc1NS(C)(=O)=O`, for which the IC50 in assay [7] was 794 nM; in assay [2], 20 nM; in assay [6] it was 20 nM. Further, the pIC50 is 6.6 in assay [1], 5.3 in assay [3], 6.4 in assay [4] and 6.1 in assay [5].

For the compound `COc1ncc(-c2cnc3nc(N)c(-c4ccccc4)cc3c2)cc1NS(=O)(=O)c1ccc(F)cc1F`, the values for the IC50 in assay [7], in assay [2] and in assay [6] were 6310 nM, 126 nM and 631 nM, respectively. For the same compound, the pIC50 in assay [1] is on record as 5.7; in assay [3], 6; in assay [4], 5.3; in assay [5] it was 5.4.

As to `COc1ncc(-c2ccc3nc(N)n(-c4cccc(C(F)(F)F)c4)c(=O)c3c2)cc1S(=O)(=O)Nc1ccc(F)cc1F`, the IC50 was 1580 nM in assay [7], 79.4 nM in assay [2] and 50.1 nM in assay [6]. The pIC50 in assay [1] was 6; in assay [3], 5; in assay [4] it was 6; in assay [5], 5.1.

Take `COc1ncc(-c2ccc3nc(N)n(C4CCOCC4)c(=O)c3c2)cc1S(=O)(=O)Nc1ccc(F)cc1F`: the figures for the IC50 in assay [7], in assay [2] and in assay [6] were 501 nM, 3.98 nM and 10 nM, respectively. Moreover, the pIC50 was found to be 6.6 in assay [1], 5.4 in assay [3], 6.6 in assay [4] and 5.9 in assay [5].

Regarding `COc1ncc(-c2ccc3nc(N)n(-c4ccccc4)c(=O)c3c2)cc1NS(=O)(=O)C(C)C`, the figures for the IC50 in assay [7], in assay [2] and in assay [6] were 501 nM, 31.6 nM and 126 nM, respectively. The pIC50 in assay [1] is listed as 6.7; in assay [3] it was 5.3; in assay [4], 6.4; in assay [5], 5.9.

In the case of `COc1ncc(-c2ccc3nc(N)n(-c4ccccc4C(F)(F)F)c(=O)c3c2)cc1S(=O)(=O)Nc1ccc(F)cc1F`, the IC50 in assay [7] is 3160 nM; in assay [6] it was 15.8 nM. Moreover, the pIC50 is given as 5.5 in assay [1]; 7.7 in assay [8]; 8.5 in assay [2] (et); 5 in assay [3]; 5.8 in assay [5].

As for `CCn1c(N)nc2ccc(-c3cnc(OC)c(S(=O)(=O)Nc4ccc(F)cc4F)c3)cc2c1=O`, the figures for the concentration for half-maximal inhibition (IC50) in assay [7], in assay [2] and in assay [6] were 158 nM, 20 nM and 39.8 nM, respectively. The pIC50 in assay [1] was determined as 6.8; in assay [3], 6.4; in assay [4], 6.9; in assay [5], 6.

With `COc1ncc(-c2ccc3nc(N)n(-c4ccccc4)c(=O)c3c2)cc1NS(=O)(=O)c1ccccc1`, the pIC50 is on record as 7.7 in assay [1], 6.3 in assay [3], 7.3 in assay [4] and 6.7 in assay [5]. For the same compound, the IC50 in assay [2] is 0.501 nM; in assay [6], 2.51 nM.
